Data as given in patent publication US10653667B2, “Drug for preventing, treating or preventing metastasis of giant cell tumor that occurs in bone or soft parts, chondrosarcoma, or osteosarcoma, local injection for arterial embolization, and artificial bone” (NIPPON CHEMIPHAR CO., LTD, priority 2013, dated 2020).
“Also recorded” adds a separate entry of the source. Values belong to the compound of their own block, whether it stands above or below them.

Columns and labels:
[1] = system: synovial cells derived from rheumatism patients; details: cited from earlier work
[2] = system: GCTB cultured cells (case 1, case 2; GCT-1, GCT-2); assay: Suppression of cell proliferation of GCTB cultured cells (Cell Counting Kit-8, WST assay); format: cell-based, human; details: drug at various concentrations, CCK-8 24 hours after addition
Experimental: Tissue Int., 75:71-77), repeatedly subcultured until there were only spindle-shaped cells, which state was gradually attained from the state that there were also multinucleated giant cells observed in an early stage, and then used for the following analysis. […] Zaltoprofen was added as a solution in DMSO (dimethyl sulfoxide) prepared at a concentration 1000 times higher than the final concentration, and the solution was added in a volume of 0.1% of the volume of the medium. The same shall apply to the other drugs used in the following examples. […]

[3] = system: cultured cells of giant cell tumor of tendon sheath (GCTT); assay: Suppression of cell proliferation of GCTT cultured cells (CCK-8); format: cell-based, human; details: drug at various concentrations, CCK-8 24 hours after addition
[4] = system: cultured cells of pigmented villonodular synovitis (PVNS); assay: Suppression of cell proliferation of PVNS cultured cells (CCK-8); format: cell-based, human; details: for suppression of cell proliferation (absorbance at 450 nm): PVNS cells, drug at various concentrations, CCK-8 24 hours after addition
[5] = system: H-EMC-SS cells; assay: Suppression of cell proliferation of chondrosarcoma cell line H-EMC-SS (CCK-8); format: cell-based, human; details: drug at various concentrations
Description: The H-EMC-SS cells were obtained from the Riken BioResource Center.
(§1) The H-EMC-SS cells were obtained from the Riken BioResource Center. As the SW1353 cells, those obtained from ATCC were used.

[6] = system: SW1353 cells; assay: Suppression of cell proliferation of chondrosarcoma cell line SW1353 (CCK-8); format: cell-based, human; details: drug at various concentrations
Description: as §1

[7] = system: SW1353 cells; assay: Cell migration of human chondrosarcoma cell line SW1353; format: cell-based; details: 72 hours
Experimental: The analysis of cell migration was performed by using a 6-well plate of TPP according to the method described in Takeuchi A, et al., Cancer Science, 104:740-749, 2013 (Low molecular weight heparin suppresses receptor for advanced glycation end products-mediated expression of malignant phenotype in human fibrosarcoma cells). Cells of the human chondrosarcoma cell line, SW1353, were cultured in the same manner as that of Example 1 until they became sub-confluent, and the cells were delaminated in a width of 1 mm using a micropipette tip (200 μl). […] Then, area of the cells migrated to the region where the cells were delaminated was measured by using Image J software (http://rsb.info.nih.gov/ij/index.html) (FIGS. 73 and 74).

[8] = system: SW1353 cells; assay: Cell invasion of SW1353 cells (Matrigel Invasion Chamber); format: cell-based, human; details: all set concentrations, concentration-dependent; 24 hours
Description: For the analysis of cell invasion, Matrigel™ Invasion Chamber (BD Bioscience, catalog number 354480), which uses Matrigel as the matrix, was used. […] FIGS. 76 and 77 show microphotographs of invaded cells fixed by immersion into a 4% paraformaldehyde solution, and stained with hematoxylin (magnification is 200 times). From the microphotographs of FIGS. 76 and 77, the patterns of the invaded cells can be understood.

[9] = Solubility in DMSO; format: physicochemical; details: limited highest test concentration (lornoxicam 80 μm, ampiroxicam 20 μm)
[10] = system: colon cancer; details: cited from earlier work
[11] = system: OST cells, human bone sarcoma-derived cultured cells; details: transdermally administered; after four weeks; cited from earlier work
[12] = system: PVNS; details: in vitro; cited from earlier work
[13] = system: SW1353 cells; assay: Proliferation of SW1353 cells cultured beforehand with PPARγ siRNA or control siRNA; format: cell-based, human; details: 100 μM rosiglitazone; 24 hours
[14] = all set concentrations, concentration-dependent

Structure (SMILES): CS(=O)(=O)Nc1ccc([N+](=O)[O-])cc1OC1CCCCC1 [NS-398]
activation of PPARγ [1]: did not activate PPARγ
apoptosis [1]: did not cause apoptosis
suppression of proliferation of the cells [1]: suppressed proliferation

Structure (SMILES): COc1ccc2c(c1)c(CC(=O)OCC(=O)O)c(C)n2C(=O)c1ccc(Cl)cc1 [acemetacine, acemetacin]
suppression of cell proliferation (live cell count, absorbance at 450 nm) [2]: suppressed proliferation
suppression of cell proliferation (absorbance at 450 nm) [3]: suppressed proliferation
suppression of cell proliferation (absorbance at 450 nm) [4]: suppressed proliferation
suppression of cell proliferation (absorbance at 450 nm) [5]: suppressed proliferation
suppression of cell proliferation (absorbance at 450 nm) [6]: suppressed proliferation

Structure (SMILES): CC(=O)Nc1ccc(O)cc1 [acetaminophen]
suppression of cell proliferation (live cell count, absorbance at 450 nm) [2]: suppressed in a drug concentration-dependent manner; also recorded: suppressed proliferation
suppression of cell proliferation (absorbance at 450 nm) [3]: suppressed proliferation
suppression of cell proliferation (absorbance at 450 nm) [4]: suppressed proliferation
suppression of cell proliferation (absorbance at 450 nm) [5]: suppressed proliferation
suppression of cell proliferation (absorbance at 450 nm) [6]: suppressed proliferation
suppression of cell migration of SW1353 cells [7, 14]: suppressed the cell migration
suppression of cell invasion of SW1353 cells [8]: suppressed the cell invasion
activation of PPARγ [1]: did not cause activation of PPARγ
apoptosis [1]: did not cause
suppression of proliferation of the cells [1]: did not cause

solubility in DMSO (dimethyl sulfoxide) [9]: low solubility
Structure (SMILES): CCOC(=O)OC(C)OC1=C(C(=O)Nc2ccccn2)N(C)S(=O)(=O)c2ccccc21 (stereo not shown) [ampiroxicam]
suppression of cell proliferation (live cell count, absorbance at 450 nm) [2]: suppressed proliferation
suppression of cell proliferation (absorbance at 450 nm) [3]: suppressed proliferation
suppression of cell proliferation (absorbance at 450 nm) [4]: suppressed proliferation
suppression of cell proliferation (absorbance at 450 nm) [5]: suppressed proliferation
suppression of cell proliferation (absorbance at 450 nm) [6]: suppressed proliferation

Structure (SMILES): Cc1ccc(-c2cc(C(F)(F)F)nn2-c2ccc(S(N)(=O)=O)cc2)cc1 [celecoxib]
suppression of cell migration of SW1353 cells ([7]; 75 μM celecoxib): higher than 80%

Structure (SMILES): O=C(O)Cc1ccccc1Nc1c(Cl)cccc1Cl [diclofenac]
suppression of cell proliferation (live cell count, absorbance at 450 nm) [2]: suppressed in a drug concentration-dependent manner; also recorded: suppressed proliferation
suppression of cell proliferation (absorbance at 450 nm) [3]: suppressed proliferation
suppression of cell proliferation (absorbance at 450 nm) [4]: suppressed proliferation
suppression of cell proliferation (absorbance at 450 nm) [5]: suppressed proliferation
suppression of cell proliferation (absorbance at 450 nm) [6]: suppressed proliferation
suppression of cell migration of SW1353 cells [7, 14]: suppressed the cell migration
suppression of cell invasion of SW1353 cells [8]: suppressed the cell invasion
activation of PPARγ [1]: activated PPARγ
apoptosis [1]: caused apoptosis
suppression of proliferation of the cells [1]: suppress proliferation
occurrence of colon cancer ([10]; induced by repetitive administration of 1,2-dimethylhydrazine dihydrochloride to rats): prevented occurrence of colon cancer
amount of NF-κB protein in the large intestine ([10]; rats): reduced amount of NF-κB protein
amount of the PPARγ protein ([10]; rats): increased amount of the PPARγ protein

Structure (SMILES): CCc1cccc2c3c([nH]c12)C(CC)(CC(=O)O)OCC3 (stereo not shown) [etodolac]
suppression of cell proliferation (live cell count, absorbance at 450 nm) [2]: suppressed proliferation
suppression of cell proliferation (absorbance at 450 nm) [3]: suppressed proliferation
suppression of cell proliferation (absorbance at 450 nm) [4]: suppressed proliferation
suppression of cell proliferation (absorbance at 450 nm) [5]: suppressed proliferation
suppression of cell proliferation (absorbance at 450 nm) [6]: suppressed proliferation

Structure (SMILES): COc1ccc2c(c1)c(CC(=O)O)c(C)n2C(=O)c1ccc(Cl)cc1 [indomethacin]
suppression of cell proliferation (live cell count, absorbance at 450 nm) [2]: suppressed in a drug concentration-dependent manner; also recorded: suppressed proliferation
suppression of cell proliferation (absorbance at 450 nm) [3]: suppressed proliferation
suppression of cell proliferation (absorbance at 450 nm) [4]: suppressed proliferation
suppression of cell proliferation (absorbance at 450 nm) [5]: suppressed proliferation
suppression of cell proliferation (absorbance at 450 nm) [6]: suppressed proliferation
suppression of cell migration of SW1353 cells [7, 14]: suppressed the cell migration
suppression of cell invasion of SW1353 cells [8]: suppressed the cell invasion
activation of PPARγ [1]: activated PPARγ
apoptosis [1]: caused apoptosis
suppression of proliferation of the cells [1]: suppress proliferation

Structure (SMILES): CC(C(=O)O)c1cccc(C(=O)c2ccccc2)c1 (stereo not shown) [ketoprofen]
tumor weight relative to placebo group [11]: 48%
activation of PPARγ [1]: did not cause activation of PPARγ
apoptosis [1]: did not cause
suppression of proliferation of the cells [1]: did not cause

solubility in DMSO (dimethyl sulfoxide) [9]: low solubility
Structure (SMILES): CN1C(C(=O)Nc2ccccn2)=C(O)c2sc(Cl)cc2S1(=O)=O [lornoxicam]
suppression of cell proliferation (live cell count, absorbance at 450 nm) [2]: suppressed proliferation
suppression of cell proliferation (absorbance at 450 nm) [3]: suppressed proliferation
suppression of cell proliferation (absorbance at 450 nm) [4]: suppressed proliferation
suppression of cell proliferation (absorbance at 450 nm) [5]: suppressed proliferation
suppression of cell proliferation (absorbance at 450 nm) [6]: suppressed proliferation

Structure (SMILES): NC(=O)c1ncn([C@@H]2O[C@H](CO)[C@@H](O)[C@H]2O)c1O [mizoribine]
inhibition of proliferation of PVNS [12]: slightly inhibited proliferation

Structure (SMILES): COc1ccc(-c2noc(CC(=O)O)c2-c2ccc(OC)cc2)cc1 [mofezolac]
suppression of cell proliferation (live cell count, absorbance at 450 nm) [2]: suppressed proliferation
suppression of cell proliferation (absorbance at 450 nm) [3]: suppressed proliferation
suppression of cell proliferation (absorbance at 450 nm) [4]: suppressed proliferation
suppression of cell proliferation (absorbance at 450 nm) [5]: suppressed proliferation
suppression of cell proliferation (absorbance at 450 nm) [6]: suppressed proliferation

Structure (SMILES): COc1ccc2cc([C@H](C)C(=O)O)ccc2c1 [naproxen]
suppression of cell proliferation (live cell count, absorbance at 450 nm) [2]: suppressed proliferation
suppression of cell proliferation (absorbance at 450 nm) [3]: suppressed proliferation
suppression of cell proliferation (absorbance at 450 nm) [4]: suppressed proliferation
suppression of cell proliferation (absorbance at 450 nm) [5]: suppressed proliferation
suppression of cell proliferation (absorbance at 450 nm) [6]: suppressed proliferation

Structure (SMILES): O=C(O)CCc1nc(-c2ccccc2)c(-c2ccccc2)o1 [oxaprozin]
suppression of cell proliferation (live cell count, absorbance at 450 nm) [2]: suppressed proliferation
suppression of cell proliferation (absorbance at 450 nm) [3]: suppressed proliferation
suppression of cell proliferation (absorbance at 450 nm) [4]: suppressed proliferation
suppression of the proliferation at the highest measured concentration ([4]; oxaprozin 200 μm, cells of pigmented villonodular synovitis as printed, 400 μm or higher could not be measured): only slight suppression
suppression of cell proliferation (absorbance at 450 nm) [5]: suppressed proliferation
suppression of cell proliferation (absorbance at 450 nm) [6]: suppressed proliferation
activation of PPARγ [1]: activated PPARγ
apoptosis [1]: caused apoptosis
suppression of proliferation of the cells [1]: suppress proliferation

Structure (SMILES): CN(CCOc1ccc(CC2SC(=O)NC2=O)cc1)c1ccccn1 (stereo not shown) [rosiglitazone]
suppression of proliferation of SW1353 cells [13]: about 61%

Structure (SMILES): Cc1c(C)c2c(c(C)c1O)CCC(C)(COc1ccc(CC3SC(=O)NC3=O)cc1)O2 (stereo not shown) [troglitazone]
suppression of cell migration of SW1353 cells ([7]; 100 μM troglitazone): about 65%
